This note sets out measurements from patent US12599672B2, “KRAS proteolysis targeting chimeras” (PAQ Therapeutics Inc., priority 2023, dated 2026).

Common to all, as to format: cell-based
One experiment has as its target T1, KRAS (Homo sapiens, UniProt P01116).
T1 construct: endogenous in cells; host or cells: KE39 (KRAS amplified) cells
Description: KRASamp MSD assay. Particulars: KE39 (KRAS amplified) cells, treated with test compounds for 24 hr, MSD readout of KRAS degradation. A digest of the protocol:
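KRAS-amplified KE39 cells treated with compound for 24 hr, then lysed in RIPA buffer with protease/phosphatase inhibitors. KRAS protein measured by MSD sandwich immunoassay against a recombinant WT KRAS standard curve; DC50 derived from curve fitting of degradation.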

For another experiment, the target named is T2, KRAS G12D (Homo sapiens, UniProt P01116, G12D).
T2 construct: AsPc-1-KRAS (G12D)-HiBit-KI cell (Pharmaron); host or cells: AsPc-1-KRAS (G12D)-HiBit-KI cells (HiBiT knock-in at the endogenous KRAS locus)
Kind of experiment: KRAS G12D HiBit assay. Particulars: AsPc-1-KRAS (G12D)-HiBit-KI cell, compound treatment for 24 hours; for DC50: absolute DC50. The method, boiled down: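 Cells were treated for 24 h with compounds in a 3-fold, 10-point dilution series from a 0.3 mM DMSO stock, then equilibrated 15 min at room temperature. KRAS G12D HiBiT levels were read by luminescence after lytic Nano-Glo HiBiT reagent with LgBiT; inhibition calculated relative to 0.1% DMSO high control.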

In the next experiment the target is T3, KRAS G12V (Homo sapiens, UniProt P01116, G12V).
T3 construct: SW620-KRAS (G12V)-HiBit-KI cell (Pharmaron); host or cells: SW620-KRAS (G12V)-HiBit-KI cells (HiBiT knock-in at the endogenous KRAS locus)
Description: KRAS G12V HiBit assay. The settings on record: SW620-KRAS (G12V)-HiBit-KI cells, compound treatment for 24 hours, class symbols. The method, boiled down:
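HiBiT-tagged KRAS G12V cells treated 24 h with compound in a 3-fold, 10-point series (0.3 mM DMSO stock); lytic HiBiT reagent with LgBiT added after 15 min room-temperature equilibration. Degradation calculated against 0.1% DMSO high control.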

The mark [1] stands for this setting: numeric bounds given in place of class symbols.

T1 sequence (P01116 1-188 isoform P01116-2): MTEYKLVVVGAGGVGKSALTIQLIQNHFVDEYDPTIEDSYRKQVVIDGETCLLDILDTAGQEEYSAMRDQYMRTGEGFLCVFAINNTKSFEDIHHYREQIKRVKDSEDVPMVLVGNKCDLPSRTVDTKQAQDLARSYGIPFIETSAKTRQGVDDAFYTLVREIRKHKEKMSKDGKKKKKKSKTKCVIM
T2 sequence (P01116 1-188 isoform P01116-2 G12D): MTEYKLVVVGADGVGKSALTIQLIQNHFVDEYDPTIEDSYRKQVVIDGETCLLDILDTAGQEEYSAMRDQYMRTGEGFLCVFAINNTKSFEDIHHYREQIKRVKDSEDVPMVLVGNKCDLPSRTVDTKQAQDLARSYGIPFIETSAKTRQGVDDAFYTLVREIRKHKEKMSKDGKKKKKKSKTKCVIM
T3 sequence (P01116 1-188 isoform P01116-2 G12V): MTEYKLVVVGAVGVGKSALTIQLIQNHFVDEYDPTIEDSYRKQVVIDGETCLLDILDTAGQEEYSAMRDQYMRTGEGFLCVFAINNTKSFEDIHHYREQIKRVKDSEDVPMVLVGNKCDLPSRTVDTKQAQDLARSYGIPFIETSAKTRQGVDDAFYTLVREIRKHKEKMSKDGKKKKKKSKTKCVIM

For `CCc1c(F)ccc2cc(O)cc(-c3ncc4c(N5CCC[C@@](C)(N)C5)nc(OC[C@@]56CCCN5[C@H](COC(=O)N5CCC7(CC5)CC(N5CCC(c8ccc9c(c8)n(C)c(=O)n9C8CCC(=O)NC8=O)CC5)C7)CC6)nc4c3F)c12` (stereo partly drawn) [Compound 479, ((3S,7aS)-7a-(((4-((R)-3-amino-3-methylpiperidin-1-yl)-7-(8-ethyl-7-fluoro-3-hydroxynaphthalen-1-yl)-8-fluoropyrido[4,3-d]pyrimidin-2-yl)oxy)methyl)hexahydro-1H-pyrrolizin-3-yl)methyl 2-(4-(1-(2,6-dioxopiperidin-3-yl)-3-methyl-2-oxo-2,3-dihydro-1H-benzo[d]imidazol-5-yl)piperidin-1-yl)-7-azaspiro[3.5]nonane-7-carboxylate], the DC50 at KRAS was at least 10 nM; at KRAS G12D (setting [1]) it was over 100 nM; at KRAS G12V it was over 100 nM.

As for `CCc1c(F)ccc2cc(O)cc(-c3ncc4c(N5CC6(CCC6)C5)nc(OC[C@@]56CCCN5[C@H](COC(=O)N5CCC7(CC5)CC(N5CCC(c8ccc9c(c8)n(C)c(=O)n9C8CCC(=O)NC8=O)CC5)C7)CC6)nc4c3F)c12` (stereo partly drawn) [Compound 347, ((3S,7aS)-7a-(((7-(8-ethyl-7-fluoro-3-hydroxynaphthalen-1-yl)-8-fluoro-4-(2-azaspiro[3.3]heptan-2-yl)pyrido[4,3-d]pyrimidin-2-yl)oxy)methyl)hexahydro-1H-pyrrolizin-3-yl)methyl 2-(4-(1-(2,6-dioxopiperidin-3-yl)-3-methyl-2-oxo-2,3-dihydro-1H-benzo[d]imidazol-5-yl)piperidin-1-yl)-7-azaspiro[3.5]nonane-7-carboxylate], the DC50 is at least 10 nM on KRAS, over 100 nM on KRAS G12D (setting [1]) and over 100 nM on KRAS G12V.

With `CCc1c(F)ccc2cc(O)cc(-c3cc4nc(OC[C@@]56CCCN5[C@H](COC(=O)N5CCC7(CC5)CC(N5CCC(c8ccc9c(c8)n(C)c(=O)n9C8CCC(=O)NC8=O)CC5)C7)CC6)nc(N5CCC[C@@](C)(O)C5)c4cn3)c12` (stereo partly drawn) [Compound 461, ((3S,7aS)-7a-(((7-(8-ethyl-7-fluoro-3-hydroxynaphthalen-1-yl)-4-((R)-3-hydroxy-3-methylpiperidin-1-yl)pyrido[4,3-d]pyrimidin-2-yl)oxy)methyl)hexahydro-1H-pyrrolizin-3-yl)methyl 2-(4-(1-(2,6-dioxopiperidin-3-yl)-3-methyl-2-oxo-2,3-dihydro-1H-benzo[d]imidazol-5-yl)piperidin-1-yl)-7-azaspiro[3.5]nonane-7-carboxylate], the DC50 at KRAS is under 1 nM; at KRAS G12D (class symbols), under 100 nM; at KRAS G12V, under 10 nM.

Take `CCc1c(F)ccc2cc(O)cc(-c3ncc4c(N5CCC[C@@](C)(O)C5)nc(OC[C@@]56CCCN5[C@H](CNC(=O)c5ccc(CN7CCC(c8ccc9c(c8)n(C)c(=O)n9C8CCC(=O)NC8=O)CC7)cc5)CC6)nc4c3F)c12` (stereo partly drawn) [Compound 484, 4-((4-(1-(2,6-dioxopiperidin-3-yl)-3-methyl-2-oxo-2,3-dihydro-1H-benzo[d]imidazol-5-yl)piperidin-1-yl)methyl)-N-(((3S,7aS)-7a-(((7-(8-ethyl-7-fluoro-3-hydroxynaphthalen-1-yl)-8-fluoro-4-((R)-3-hydroxy-3-methylpiperidin-1-yl)pyrido[4,3-d]pyrimidin-2-yl)oxy)methyl)hexahydro-1H-pyrrolizin-3-yl)methyl)benzamide]: the DC50 on KRAS was at least 10 nM; at KRAS G12D (class symbols), under 100 nM; at KRAS G12V it was 10 to 100 nM.

Turning to `C#Cc1c(F)ccc2cc(O)cc(-c3ncc4c(N5CCC[C@@](C)(O)C5)nc(OC[C@@]56CCCN5[C@H](COC(=O)N5CCC(OC7CCN(c8ccc9c(c8)n(C)c(=O)n9C8CCC(=O)NC8=O)CC7)CC5)CC6)nc4c3F)c12` (stereo partly drawn) [Compound 155, ((3S,7aS)-7a-(((7-(8-Ethynyl-7-fluoro-3-hydroxynaphthalen-1-yl)-8-fluoro-4-((R)-3-hydroxy-3-methylpiperidin-1-yl)pyrido[4,3-d]pyrimidin-2-yl)oxy)methyl)hexahydro-1H-pyrrolizin-3-yl)methyl 4-((1-(1-(2,6-dioxopiperidin-3-yl)-3-methyl-2-oxo-2,3-dihydro-1H-benzo[d]imidazol-5-yl)piperidin-4-yl)oxy)piperidine-1-carboxylate], the DC50 at KRAS was under 1 nM; on KRAS G12D (class symbols), under 100 nM; on KRAS G12V, under 10 nM.

For `CCc1c(F)ccc2cc(O)cc(-c3ncc4c(N5CCC[C@@](C)(O)C5)nc(OC[C@@]56CCCN5[C@H](COC(=O)NC5CCN(C7CCN(c8ccc9c(c8)n(C)c(=O)n9C8CCC(=O)NC8=O)CC7)CC5)CC6)nc4c3F)c12` (stereo partly drawn) [Compound 427, ((3S,7aS)-7a-(((7-(8-ethyl-7-fluoro-3-hydroxynaphthalen-1-yl)-8-fluoro-4-((R)-3-hydroxy-3-methylpiperidin-1-yl)pyrido[4,3-d]pyrimidin-2-yl)oxy)methyl)hexahydro-1H-pyrrolizin-3-yl)methyl (1′-(1-(2,6-dioxopiperidin-3-yl)-3-methyl-2-oxo-2,3-dihydro-1H-benzo[d]imidazol-5-yl)-[1,4′-bipiperidin]-4-yl)carbamate], the figures for the DC50 on KRAS, on KRAS G12D (class symbols) and at KRAS G12V were at least 10 nM, under 100 nM and 10 to 100 nM, respectively.

For `CCc1c(F)ccc2cc(O)cc(-c3ncc4c(N5CCC[C@@](C)(O)C5)nc(OC[C@@]56CCCN5[C@H](COC(=O)NC5CCN(CC7CCN(c8ccc9c(c8)n(C)c(=O)n9C8CCC(=O)NC8=O)CC7)CC5)CC6)nc4c3F)c12` (stereo partly drawn) [Compound 428, ((3S,7aS)-7a-(((7-(8-ethyl-7-fluoro-3-hydroxynaphthalen-1-yl)-8-fluoro-4-((R)-3-hydroxy-3-methylpiperidin-1-yl)pyrido[4,3-d]pyrimidin-2-yl)oxy)methyl)hexahydro-1H-pyrrolizin-3-yl)methyl (1-((1-(1-(2,6-dioxopiperidin-3-yl)-3-methyl-2-oxo-2,3-dihydro-1H-benzo[d]imidazol-5-yl)piperidin-4-yl)methyl)piperidin-4-yl)carbamate], the figures for the DC50 at KRAS, on KRAS G12D (class symbols) and at KRAS G12V were 1 to 10 nM, under 100 nM and 10 to 100 nM, respectively.

On to `CCc1c(F)ccc2cc(O)cc(-c3ncc4c(N5CCC[C@@](C)(O)C5)nc(OC[C@@]56CCCN5[C@H](COC(=O)N5CCC(CN7CCC(c8ccc9c(C%10CCC(=O)NC%10=O)nn(C)c9c8F)CC7)CC5)CC6)nc4c3F)c12` (stereo partly drawn) [Compound 100, [(3S,8S)-8-[[7-(8-ethyl-7-fluoro-3-hydroxy-1-naphthyl)-8-fluoro-4-[(3R)-3-hydroxy-3-methyl-1-piperidyl]pyrido[4,3-d]pyrimidin-2-yl]oxymethyl]-1,2,3,5,6,7-hexahydropyrrolizin-3-yl]methyl 4-[[4-[3-(2,6-dioxo-3-piperidyl)-7-fluoro-1-methyl-indazol-6-yl]-1-piperidyl]methyl]piperidine-1-carboxylate], for which the DC50 at KRAS was under 1 nM; on KRAS G12D (class symbols), under 100 nM; at KRAS G12V it was under 10 nM. Further, the Dmax at KRAS G12D (class symbols) was over 50%.

Regarding `CCc1cccc2cc(O)cc(-c3ncc4c(N5CCC[C@@](C)(O)C5)nc(OC[C@@]56CCCN5[C@H](COC(=O)N5CCC(CN7CCC(c8ccc9c(c8)n(C)c(=O)n9C8CCC(=O)NC8=O)CC7)CC5)CC6)nc4c3F)c12` (stereo partly shown) [Compound 145], the DC50 is 1 to 10 nM on KRAS, under 100 nM at KRAS G12D (class symbols) and under 10 nM at KRAS G12V.

As to `C#Cc1c(F)ccc2cc(O)cc(-c3ncc4c(N5CCC[C@@](C)(O)C5)nc(OC[C@@]56CCCN5[C@H](COC(=O)N5CC7(CC(N8CCC(c9ccc%10c(c9)n(C)c(=O)n%10C9CCC(=O)NC9=O)CC8)C7)C5)CC6)nc4c3F)c12` (stereo partly drawn) [Compound 419, ((3S,7aS)-7a-(((7-(8-ethynyl-7-fluoro-3-hydroxynaphthalen-1-yl)-8-fluoro-4-((R)-3-hydroxy-3-methylpiperidin-1-yl)pyrido[4,3-d]pyrimidin-2-yl)oxy)methyl)hexahydro-1H-pyrrolizin-3-yl)methyl 6-(4-(1-(2,6-dioxopiperidin-3-yl)-3-methyl-2-oxo-2,3-dihydro-1H-benzo[d]imidazol-5-yl)piperidin-1-yl)-2-azaspiro[3.3]heptane-2-carboxylate], the figures for the DC50 on KRAS, on KRAS G12D (class symbols) and at KRAS G12V were under 1 nM, under 100 nM and under 10 nM, respectively.

For the compound `CCc1c(F)ccc2cc(O)cc(-c3ncc4c(N5CCC[C@@](C)(O)C5)nc(OC[C@@]56CCCN5[C@H](COC(=O)N5CCC7(CCC(N8CCC(c9ccc%10c(c9)n(C)c(=O)n%10C9CCC(=O)NC9=O)CC8)C7)CC5)CC6)nc4c3F)c12` (stereo partly drawn) [Compound 455, ((3S,7aS)-7a-(((7-(8-ethyl-7-fluoro-3-hydroxynaphthalen-1-yl)-8-fluoro-4-((R)-3-hydroxy-3-methylpiperidin-1-yl)pyrido[4,3-d]pyrimidin-2-yl)oxy)methyl)hexahydro-1H-pyrrolizin-3-yl)methyl 2-(4-(1-(2,6-dioxopiperidin-3-yl)-3-methyl-2-oxo-2,3-dihydro-1H-benzo[d]imidazol-5-yl)piperidin-1-yl)-8-azaspiro[4.5]decane-8-carboxylate], the DC50 at KRAS was under 1 nM; on KRAS G12D (class symbols) it was under 100 nM; on KRAS G12V, under 10 nM.
